{"source": "the NIST ThermoML archive (doi:10.1016/j.jct.2017.08.017)", "key": {"[1]": {"assay": "molar enthalpy of vaporization or sublimation", "settings": "298.15 K; Crystal; Static calorimetry"}, "[2]": {"settings": "Crystal, Calculated from knudsen effusion weight loss"}}, "note": "Where “and” joins values, the source holds several entries; their conditions need not be identical. Identical values can stand only once. ± gives the expanded uncertainty stated by the source."}
{"compound": "Oc1ccccc1-c1nc2ccccc2s1", "note": "[2-(2-hydroxyphenyl)-1,3-benzothiazole]", "values": [{"measurement": "molar enthalpy", "setting": "[1]", "value": "25.1 ± 0.526", "unit": "kcal/mol"}]}
{"compound": "Oc1ccccc1-c1nc2ccccc2o1", "note": "[2-(2-hydroxyphenyl)benzoxazole]", "values": [{"measurement": "vapor or sublimation pressure", "setting": "[2]; 331.16 K", "value": "0.000127 ± 0.00012 kPa and 0.00012 ± 0.00012 kPa and 0.000119 ± 0.00012 kPa"}, {"measurement": "vapor or sublimation pressure", "setting": "[2]; 333.19 K", "value": "0.000156 ± 0.00012 kPa and 0.000152 ± 0.00012 kPa and 0.00015 ± 0.00012 kPa"}, {"measurement": "vapor or sublimation pressure", "setting": "[2]; 335.13 K", "value": "0.000191 ± 0.00012 kPa and 0.000188 ± 0.00012 kPa"}, {"measurement": "vapor or sublimation pressure", "setting": "[2]; 337.16 K", "value": "0.000233 ± 0.00012 kPa and 0.00023 ± 0.00012 kPa and 0.000248 ± 0.00012 kPa"}, {"measurement": "vapor or sublimation pressure", "setting": "[2]; 339.18 K", "value": "0.000301 ± 0.00012 kPa and 0.000288 ± 0.00012 kPa and 0.000294 ± 0.00012 kPa"}, {"measurement": "vapor or sublimation pressure", "setting": "[2]; 341.12 K", "value": "0.000365 ± 0.00012 kPa and 0.000362 ± 0.00012 kPa and 0.000366 ± 0.00012 kPa"}, {"measurement": "vapor or sublimation pressure", "setting": "[2]; 343.16 K", "value": "0.000446 ± 0.00012 kPa and 0.000441 ± 0.00012 kPa and 0.000477 ± 0.00012 kPa"}, {"measurement": "vapor or sublimation pressure", "setting": "[2]; 345.17 K", "value": "0.000571 ± 0.00012 kPa and 0.000545 ± 0.00012 kPa and 0.000558 ± 0.00012 kPa"}, {"measurement": "vapor or sublimation pressure", "setting": "[2]; 347.11 K", "value": "0.000688 ± 0.00012 kPa and 0.00068 ± 0.00012 kPa"}, {"measurement": "vapor or sublimation pressure", "setting": "[2]; 349.16 K", "value": "0.000829 ± 0.00012 kPa and 0.000822 ± 0.00012 kPa and 0.000879 ± 0.00012 kPa"}, {"measurement": "vapor or sublimation pressure", "setting": "[2]; 351.16 K", "value": "0.001027 ± 0.00014 kPa and 0.001049 ± 0.00014 kPa and 0.001006 ± 0.00014 kPa"}, {"measurement": "vapor or sublimation pressure", "setting": "[2]; 353.12 K", "value": "0.001264 ± 0.00015 kPa and 0.001273 ± 0.00015 kPa and 0.00126 ± 0.00015 kPa"}, {"measurement": "molar enthalpy", "setting": "[1]", "value": "24 ± 0.43", "unit": "kcal/mol"}]}
{"compound": "c1ccc(-c2nc3ccccc3s2)cc1", "note": "[2-phenylbenzothiazole]", "values": [{"measurement": "molar enthalpy", "setting": "[1]", "value": "23.7 ± 0.406", "unit": "kcal/mol"}]}
{"compound": "c1ccc(-c2nc3ccccc3o2)cc1", "note": "[2-phenylbenzoxazole]", "values": [{"measurement": "molar enthalpy", "setting": "[1]", "value": "21.7 ± 0.478", "unit": "kcal/mol"}]}
